According to ChEMBL document CHEMBL3244359, “Aromatic hydroxylation of beta-adrenergic antagonists. 4- and 5-hydroxylation of 1-(isopropylamino)-3-[2-(allyloxy)phenoxy]-2-propanol (oxprenolol)” (J Med Chem, 1978):

Columns and labels:
[1] = Drug excretion in Sprague-Dawley rat urine treated with oxprenolol at 20 mg/kg, ip after 24 hrs by GC-CIMS analysis; type: ADME, organism-based; parameters: dose 20 mg/kg, route intraperitoneal; conditions: in vivo
[2] = Retention time of the compound by gas chromatography; type: physicochemical
[3] = Drug excretion in Sprague-Dawley rat urine treated with oxprenolol at 20 mg/kg, ip after 24 hrs by GC-CIMS analysis in presence of beta-glucuronidase and CH2N2; type: ADME, organism-based; parameters: dose 20 mg/kg, route intraperitoneal; conditions: in vivo

Structure (SMILES): C=CCOc1cc(O)ccc1OCC(O)CNC(C)C (centres undefined)
- Drug excretion [1]: metabolite_detected

Structure (SMILES): C=CCOc1ccc(O)cc1OCC(O)CNC(C)C (centres undefined)
- Drug excretion [1]: metabolite_detected

Structure (SMILES): C=CCOc1ccccc1OCC(O)CNC(C)C.O=C(O)C(F)(F)F (centres undefined)
- Retention_time [2]: 5.7 min

Structure (SMILES): C=CCOc1cc(OC)ccc1OCC(O)CNC(C)C.O=C(O)C(F)(F)F (centres undefined)
- Drug excretion [3]: metabolite_detected
- Retention_time [2]: 13.1 min

Structure (SMILES): C=CCOc1ccc(OC)cc1OCC(O)CNC(C)C.O=C(O)C(F)(F)F (centres undefined)
- Drug excretion [3]: metabolite_detected
- Retention_time [2]: 11.8 min

Structure (SMILES): C=CCOc1c(OC)cccc1OCC(O)CNC(C)C.O=C(O)C(F)(F)F (centres undefined)
- Retention_time [2]: 9.6 min

Structure (SMILES): C=CCOc1cccc(OC)c1OCC(O)CNC(C)C.O=C(O)C(F)(F)F (centres undefined)
- Retention_time [2]: 10.5 min
